# In patent US20160324770A1, “INTRATHECAL ADMINISTRATION, PREFERABLY INTRAVENTRICULAR, OF MTOR INHIBITORS FOR THE THERAPY OF SOME NEURODEGENERATIVE, NEUROINFLAMMATORY AND NEURO-ONCOLOGIC DISEASES” (priority 2012, published 2016):
# Read-outs that look alike come from different tables or passages of the source.
# Key:
# [1] = system: AD triple transgenic mouse (3xTg-AD); experiment: Alzheimer's disease mouse model, intraventricular osmotic pumps; type: in vivo, 3xTg-AD mouse; conditions: local application, same dosage as in EAE mice
# Description: We carried out trials in mouse models exemplifying 3 families of neurological diseases: • EAE (Experimental Autoimmune Encephalomyelite, model of neuroinflammatory disease): SJL/j mice were immunized with two subcutaneous injections, performed 7 days apart, of proteolipid protein (PLP139-151), Freund's adjuvant and inactivated Mycobacterium tuberculosis. The disease severity was rated with a clinical score: 0=healthy; 1=tail weakness; 2=rear limb ataxia and/or paresis; 3=rear limb paralysis and/or front limb paresis; 4=tetraplegia; 5=state of agony or death • AD (Alzheimer's Disease, model of neurodegenerative disease): AD triple transgenic mouse (3xTg-AD) supplied by Jackson Laboratories (http://jaxmice.jax.org/strain/004807.html) Their memory was evaluated using the Passive Avoidance and Radial Maze tests; • TSC (Tuberous sclerosis complex, model of neuro-oncologic disease): TSC1 mouse with TSC1 gene within a flox cassette, supplied by Jackson Laboratories (http://jaxmice.jax.org/strain/005680.html)
# We applied intraventricular catheters and everolimus-secreting osmotic pumps implanted subcutaneously on the back of 12 AD mice for 4 weeks. We infused a vehicle to an equal number of mice. We injected everolimus into 10 healthy mice and, finally, the vehicle into another 10. The appropriate pump was replaced after 4 weeks and kept in place for another 4. […]
# [2] = Blood and brain concentrations (LC-MS) in mice treated intraperitoneally for a week with graduated doses; type: in vivo, CD1 mice; conditions: for concentration at 1 week: CD1, mouse
# Description: A quantitative analysis of everolimus in blood and tissue samples was performed with the isotopic dilution method using the LC-MS technique. The chromatographic system was the following: Agilent 1290 Infinity HPLC equipped with a binary pump and HiP Auto Sampler model G4226A. The injection volume was 2 μL, the analytical column used was a Phenomenex Kinetics PFP UHPLC column (Phenomenex, Milan, Italy) […], 1.7 μm, 100 Å, temperature controlled at 55° C. A gradient elution was performed using as solvent A: water with 5 mM ammonium formiate, solvent B: methanol with 0.1% formic acid. The elution profile was the following: solvent A 30%/solvent B 70% for 3 minutes, solvent A 1%/solvent B 99% from 3 to 6 minutes, at a flow velocity of 0.25 mL/min. This setup enabled an elution time of 2.5 minutes. Every injection was preceded by a cycle of washing the injector system with methanol.
# Mass spectrometry was conducted using a Q-TOF MS detector model G6540A (Agilent, Germany) equipped with a Dual AJS ESI (electrospray ionization interface) system. The instrument parameters were the following: sheath gas flow: […], sheath gas temperature: 300° C., gas flow: 6 L/min, gas temperature: 300° C., nebulizer pressure: 35 psi, ion spray voltage: 5500 V.
# Both everolimus and the isotopic internal standard were detected as ammonium adducts in the positive ion mode.
# Everolimus was extracted from whole blood in 1 mL of a methanol solution containing 10% ammonium acetate in order to enable precipitation of most of the serum protein.
# The internal standard used was isotopic 4d-2C^13-everolimus added to the extraction solution at a concentration of 200 ng/mL.
# The blood samples were freeze-dried and subsequently extracted. The extraction process was carried out in a sonication bath for approx. 10 minutes to ensure complete haemolysis and release of the drug from the cell material.
# The samples were centrifuged (10 minutes, 4000 rpm, 10° C.) and the supernatant was then separated from the pellet.
# The solutions thus obtained were then purified by means of HybridSPE®-Phospholipid solid-phase extraction cartridges with a total volume of 1 ml (Sigma Aldrich, Milan) to eliminate the excess lipid material potentially present. The process was preliminarily validated both for everolimus and for the internal standard in solution and in matrices, providing a yield >98% w/v.
# The process of extraction from brain samples, divided into right and left hemispheres, was similar to the one for whole blood. The tissue samples were weighed and subsequently freeze-dried. After freeze-drying the samples were finely chopped to facilitate subsequent extraction. 1 mL of the methanol solution was then added to 1% v/v of ammonium formiate with 200 ng/mL of internal standard. The samples were then subjected to 10 minutes of sonication and vortexed to ensure complete extraction of the drug. Then followed centrifugation (10 minutes, 4000 rpm, 10° C.) and the supernatant was separated from the pellet. As previously described, the solutions were purified by means of HybridSPE®-Phospholipid solid-phase extraction cartridges with a total volume of 1 ml (Sigma Aldrich, Milan) to eliminate the excess lipid material. The samples were then immediately submitted to LC-MS analysis.
# [3] = system: p70-S6 kinase phosphorylation (measure of mTOR activity); experiment: Western blot of p70S6K phosphorylation in brain, liver and spleen (verification of mTOR inhibition); type: in vivo, mice
# Description: The frozen mouse tissues were homogenized in T-PER solution (Pierce) containing a cocktail of protease inhibitors (Sigma-Aldrich) and a cocktail of phosphatase inhibitors (Sigma-Aldrich). The homogenized samples were sonicated 3 times for 15 sec (amplitude of 10 microns) at 4° C. using an MSE soniprep 150 sonicator (Sanyo), and subsequently centrifuged at 4° C. for 30 minutes at 16000 g. The supernatant was recovered and the proteins quantified by means of a Bradford assay using BSA as the standard.
# For the Western blot analysis, the proteins were separated by SDS-PAGE under reducing conditions according to the method of Laemmli. Subsequently, the proteins were transferred onto a PVDF membrane (Biorad), which was incubated with the following primary antibodies: anti-phospho-p70S6K (T^389), anti-phospho-p70S6K (S^371), anti-p70S6K (Cell Signaling) and anti-actin (Sigma-Aldrich). After being washed with TBS-Tween (50 mM Tris, pH 7.5, NaCl […] and 0.1% Tween 20), the membrane was incubated with one of the following secondary antibodies: anti-rabbit IgG conjugated to HRP (GE Healthcare) and anti-mouse IgG conjugated to HRP (GE Healthcare). The membrane was developed by means of ECL prime (GE Healthcare).
# Verification of mTOR inhibition. We analyzed the actual inhibition of mTOR by WB. mTOR is a kinase with multiple substrates, one of which is p70-S6 kinase. Phosphorylation of the latter is unanimously considered a measure of mTOR activity.
smiles,measurement,setting,value
CO[C@H]1C[C@@H]2CC[C@@H](C)[C@@](O)(O2)C(=O)C(=O)N2CCCC[C@H]2C(=O)O[C@H]([C@H](C)C[C@@H]2CC[C@@H](OCCO)[C@H](OC)C2)CC(=O)[C@H](C)/C=C(\C)[C@@H](O)[C@@H](OC)C(=O)[C@H](C)C[C@H](C)/C=C/C=C/C=C/1C [everolimus],Pharmacological activity observed in AD mice,[1],an increase in autophagy
same,concentration at 1 week,"[2]; brain, intraperitoneal, 0.6125 mg/Kg, heading: Brain conc 1, one week, lowest of 3 dosages (C=0.6125 mg/Kg)",46 ng/g
same,Level in the blood,[2]; all 3 dosages of the one-week study,did not reach measurable levels in the blood
same,concentration at 1 week,"[2]; female, brain, left hemisphere (sx), ip, females, 0.6125 mg/kg i.p. for a week, normalized to weight of a hemisphere, read-out: Brain concentration, hemisphere sx (converted)",48 ng/g
same,concentration at 1 week,"[2]; female, brain, left hemisphere (sx), ip, females, 1.25 mg/kg i.p. for a week, normalized to weight of a hemisphere, read-out: Brain concentration, hemisphere sx (converted)",80 ng/g
same,concentration at 1 week,"[2]; female, brain, left hemisphere (sx), ip, females, 2.5 mg/kg i.p. for a week, normalized to weight of a hemisphere, read-out: Brain concentration, hemisphere sx (converted)",152 ng/g
same,concentration at 1 week,"[2]; female, brain, right hemisphere (dx), ip, females, 0.6125 mg/kg i.p. for a week, normalized to weight of a hemisphere, read-out: Brain concentration, hemisphere dx (converted)",44 ng/g
same,concentration at 1 week,"[2]; female, brain, right hemisphere (dx), ip, females, 1.25 mg/kg i.p. for a week, normalized to weight of a hemisphere, read-out: Brain concentration, hemisphere dx (converted)",72 ng/g
same,concentration at 1 week,"[2]; female, brain, right hemisphere (dx), ip, females, 2.5 mg/kg i.p. for a week, normalized to weight of a hemisphere, read-out: Brain concentration, hemisphere dx (converted)",132 ng/g
same,concentration at 1 week,"[2]; female, whole blood, ip, females, 0.6125 mg/kg intraperitoneally for a week, n = 2, read-out: Blood concentration",15 ± 3 ng/mL
same,concentration at 1 week,"[2]; female, whole blood, ip, females, 1.25 mg/kg intraperitoneally for a week, n = 2, read-out: Blood concentration",25 ± 5 ng/mL
same,concentration at 1 week,"[2]; female, whole blood, ip, females, 2.5 mg/kg intraperitoneally for a week, n = 2, read-out: Blood concentration",46 ± 4 ng/mL
same,concentration at 1 week,"[2]; male, brain, left hemisphere (sx), ip, males, 0.6125 mg/kg i.p. for a week, normalized to weight of a hemisphere, read-out: Brain concentration, hemisphere sx (converted)",36 ng/g
same,concentration at 1 week,"[2]; male, brain, left hemisphere (sx), ip, males, 1.25 mg/kg i.p. for a week, normalized to weight of a hemisphere, read-out: Brain concentration, hemisphere sx (converted)",100 ng/g
same,concentration at 1 week,"[2]; male, brain, left hemisphere (sx), ip, males, 2.5 mg/kg i.p. for a week, normalized to weight of a hemisphere, read-out: Brain concentration, hemisphere sx (converted)",176 ng/g
same,concentration at 1 week,"[2]; male, brain, right hemisphere (dx), ip, males, 0.6125 mg/kg i.p. for a week, normalized to weight of a hemisphere, read-out: Brain concentration, hemisphere dx (converted)",56 ng/g
same,concentration at 1 week,"[2]; male, brain, right hemisphere (dx), ip, males, 1.25 mg/kg i.p. for a week, normalized to weight of a hemisphere, read-out: Brain concentration, hemisphere dx (converted)",148 ng/g
same,concentration at 1 week,"[2]; male, brain, right hemisphere (dx), ip, males, 2.5 mg/kg i.p. for a week, normalized to weight of a hemisphere, read-out: Brain concentration, hemisphere dx (converted)",208 ng/g
same,concentration at 1 week,"[2]; male, whole blood, ip, males, 0.6125 mg/kg intraperitoneally for a week, n = 2, read-out: Blood concentration",16 ± 4 ng/mL
same,concentration at 1 week,"[2]; male, whole blood, ip, males, 1.25 mg/kg intraperitoneally for a week, n = 2, read-out: Blood concentration",42 ± 4 ng/mL
same,concentration at 1 week,"[2]; male, whole blood, ip, males, 2.5 mg/kg intraperitoneally for a week, n = 2, read-out: Blood concentration",59 ± 3 ng/mL
same,Blood concentration (LC-MS),[2]; mice treated with intraperitoneal administration,in the therapeutic range
same,Inhibition of mTOR as shown by WB,[3]; intrathecal treatment,"local, but not systemic, inhibition of mTOR"
same,Phosphorylation state of p70-S6 kinase in the brain vs controls,"[3]; selected dose (12.5 mg/Kg) intraventricular, brain, FIG. 1",less phosphorylated form than in the controls
same,Phosphorylation state of p70-S6 kinase in the spleen and liver,"[3]; selected dose (12.5 mg/Kg) intraventricular, spleen and liver, FIG. 1",normally phosphorylated
